Reference: patent US20230132133A1, “METHODS AND COMPOSITIONS FOR THE TREATMENT OF C. DIFFICILE” (priority 2018, published 2023)
In brackets after ≈: the same amount, converted by molar mass. Several values for one entry are separate records, joined by “and”; a condition that tells them apart may be missing. Identical values can stand only once.

How the values were obtained:
[1] = tested on: B. amyloliquefaciens ART12; test: Antibiotic MIC, VetMIC Lact-1 & Lact-2 panels; assay type: cell-based, Bacillus amyloliquefaciens; conditions: Bacillus amyloliquefaciens, ART12; 24 hr at 37° C.
Procedure: (§1) The wells of the prefabricated 96-well plates were filled with 100 μL of the final suspension. The plates were sealed with an […], Sigma Aldrich) sealing film (to facilitate growth of the aerobic Bacillus strains. The plates were then incubated for 24 hr at 37° C. The results are recorded after 24 hours as the lowest concentration of the antibiotic to inhibit visible growth. The prefabricated panels […], Uppsala, Sweden) comprising the antibiotics ampicillin, vancomycin, gentamicin, kanamycin, streptomycin, erythromycin, clindamycin, tetracycline, chloramphenicol, neomycin, penicillin, quinupristin-dalfopristin, linezolid, trimethoprim, ciprofloxacin and rifampicin were used.

[2] = tested on: B. amyloliquefaciens ART24; test: Antibiotic MIC, VetMIC Lact-1 & Lact-2 panels; assay type: cell-based, Bacillus amyloliquefaciens; conditions: Bacillus amyloliquefaciens, ART24; 24 hr at 37° C.
Procedure: as §1

[3] = tested on: B. amyloliquefaciens ART4; test: Antibiotic MIC, VetMIC Lact-1 & Lact-2 panels; assay type: cell-based, Bacillus amyloliquefaciens; conditions: Bacillus amyloliquefaciens, ART4; 24 hr at 37° C.
Procedure: as §1

[4] = tested on: B. amyloliquefaciens ART24; test: Antibiotic MIC following EFSA testing recommendations on lyophilized ART24 lots and cell banks; assay type: cell-based, Bacillus amyloliquefaciens
Excerpt: The minimum inhibitory concentration (MIC) of the listed antimicrobials is expressed as µg/mL.

C. difficile ATCC 43255 = test: C. difficile mouse model, in vivo efficacy; parameters: species or system Mice (C57BL/6J female); conditions: to study day 10 post-C. difficile infection
Procedure: C. difficile mouse model. The mouse model of C. difficile infection was prepared as described elsewhere (Chen, X, et al., Gastroenterology 135:1984-1992 (2008)).
Mice (C57BL/6J female) were divided prospectively into 4 treatment groups of 15 animals (Table 7) and housed 5 animals per cage.
Mice received an antibiotic cocktail for eight consecutive days in their drinking water starting 13 days prior to C. difficile infection (study day 0). The antibiotic cocktail was changed every third day with freshly prepared antibiotics provided. The antibiotic cocktail consisted of 1% glucose, kanamycin (0.5 mg/mL), gentamicin (0.044 mg/mL), colistin (1062.5 U/mL), metronidazole (0.269 mg/mL), ciprofloxacin (0.156 mg/mL), ampicillin (0.1 mg/mL) and vancomycin (0.056 mg/mL). Five days prior to C. difficile infection, the antibiotic water was removed. Animals were placed in clean cages and sterile drinking water provided to the mice. Three days prior to infection mice were administered Clindamycin at 10 mg/kg via oral gavage in a volume of 10 mL/kg.
The strain was applied to TSA agar plates from frozen stocks (3 days prior to dosing) and cultured overnight at 37° C. […]
Mice were observed daily through the course of the study. […] Clinical observations were also performed with adverse observations recorded when appropriate. […]

CN[C@H](CC(C)C)C(=O)N[C@H]1C(=O)N[C@@H](CC(N)=O)C(=O)N[C@H]2C(=O)N[C@H]3C(=O)N[C@H](C(=O)N[C@H](C(=O)O)c4cc(O)cc(O)c4-c4cc3ccc4O)[C@H](O)c3ccc(c(Cl)c3)Oc3cc2cc(c3O[C@@H]2O[C@H](CO)[C@@H](O)[C@H](O)[C@H]2O[C@H]2C[C@](C)(N)[C@H](O)[C@H](C)O2)Oc2ccc(cc2Cl)[C@H]1O [Vancomycin]
MIC [1]: 0.5 µg/mL (≈ 0.345 µM)
MIC [2]: 0.5 to 1 µg/mL (≈ 0.345 to 0.69 µM)
MIC [3]: 0.5 µg/mL (≈ 0.345 µM)
MIC interpretation for ART24 [4]: 0.5 (S) and ≤0.25 (S)
MIC ([4]; Bacillus amyloliquefaciens, ART24, read-out: MIC for ART24): 0.5 µg/mL (≈ 0.345 µM)
animals survived (survivors/group) (C. difficile ATCC 43255): 15/15
